{
  "source": "patent US11547692B2",
  "about": "“Complete animal food having cannabinoids in trace concentrations to avoid toxicity” (High Plains Nutrition, LLC, priority 2017, dated 2023)",
  "origin": "cited, not measured here",
  "test_system": "psychotropic effects",
  "conditions": "humans; single administration; lowest dose tested; European Food Safety Authority (EFSA, 2011)",
  "data": [
    {"compound": "CCCCCc1cc(O)c2c(c1)OC(C)(C)[C@@H]1CCC(C)=C[C@@H]21", "note": "[THC, Tetrahydrocannabinol]", "values": [
      {"measurement": "Lowest Observed Effect Level (LOEL), lowest effective dose for psychotropic effects", "value": 0.04, "unit": "mg THC/kg BW"}
    ]}
  ]
}
